Like-named read-outs stand apart in the source and are kept apart here.

Data on four compounds can be found in US9550772B2, “Azaindole derivatives as multi kinase inhibitors” (ORIBASE PHARMA, priority 2012, dated 2017).

For experiment [1], the target named is T1, BRAF (Homo sapiens, UniProt P15056).
T1 construct: purchased Invitrogen
Briefly: In vitro kinase assay (Z'-LYTE, Invitrogen). As to conditions: compound at 100 nM, ATP Km apparent, read-out: % of inhibition of the kinase compared to the control. The experiment is classed as biochemical. A digest of the protocol: (§1)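 Single-concentration screen (100 nM) run by Z′-LYTE on human recombinant kinase, ATP at apparent Km, 50 mM HEPES pH 7.5 buffer, 1% DMSO final.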

Experiment [2] addresses T2, EGFR (ErbB1) (Homo sapiens, UniProt P00533).
T2 construct: purchased Invitrogen
Briefly: In vitro kinase assay (Z'-LYTE, Invitrogen). It counts as biochemical. As to conditions: compound at 100 nM, ATP Km apparent, read-out: % of inhibition of the kinase compared to the control. A digest of the protocol: as §1

The target of experiment [3] is T3, EGFR (ErbB1) T790M L858R (Homo sapiens, UniProt P00533, L858R/T790M).
T3 construct: purchased Invitrogen
Briefly: In vitro kinase assay (Z'-LYTE, Invitrogen). The experiment is classed as biochemical. As to conditions: compound at 100 nM, ATP Km apparent, read-out: % of inhibition of the kinase compared to the control. A digest of the protocol: as §1

Experiment [4] addresses T4, FGFR2 (Homo sapiens, UniProt P21802).
T4 construct: purchased Invitrogen
Briefly: In vitro kinase assay (Z'-LYTE, Invitrogen). It counts as biochemical. As to conditions: compound at 100 nM, ATP Km apparent, read-out: % of inhibition of the kinase compared to the control. The gist of the method:
as §1

Experiment [5] addresses T5, KDR (VEGFR2) (Homo sapiens, UniProt P35968).
T5 construct: purchased Invitrogen
Briefly: In vitro kinase assay (Z'-LYTE, Invitrogen). It counts as biochemical. As to conditions: compound at 100 nM, ATP Km apparent, read-out: % of inhibition of the kinase compared to the control. The gist of the method: as §1

Experiment [6] addresses T6, PDGFRA (PDGFR alpha) (Homo sapiens, UniProt P16234).
T6 construct: purchased Invitrogen
Briefly: In vitro kinase assay (Z'-LYTE, Invitrogen). The experiment is classed as biochemical. As to conditions: compound at 100 nM, ATP Km apparent, read-out: % of inhibition of the kinase compared to the control. The gist of the method: as §1

The target of experiment [7] is T7, SRC (Homo sapiens, UniProt P12931).
T7 construct: purchased Invitrogen
Briefly: In vitro kinase assay (Z'-LYTE, Invitrogen). The experiment is classed as biochemical. As to conditions: compound at 100 nM, ATP Km apparent, read-out: % of inhibition of the kinase compared to the control. The gist of the method:
as §1

The test system of experiment [8] is A549 cell line. Briefly: In vitro cell proliferation assay (MTT). It counts as cell-based. The following applies: Homo sapiens, A549, 72 h, read-out: EC50, anti-proliferative activity. A digest of the protocol:
(§2)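 Duplicate 72 hr treatments spanning 10 nM–3 μM compound preceded MTT measurement of growth. Sigmoidal fitting yielded EC50, with normalization against DMSO controls set at 0% and 1% SDS controls set at 100%.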

Experiment [9] has as its system H1975 cell line. Briefly: In vitro cell proliferation assay (MTT). The experiment is classed as cell-based. The following applies: Homo sapiens, NCI-H1975, H1975, 72 hr, EC50 ≧ 1 μM, read-out: EC50, anti-proliferative activity. The gist of the method:
as §2

Experiment [10] has as its system HRMEC cells. Briefly: In vitro cell proliferation assay (MTT). The experiment is classed as cell-based. The following applies: 72 hr, read-out: EC50, anti-proliferative activity. A digest of the protocol:
as §2

Experiment [11] has as its system HT29 cell line. Briefly: In vitro cell proliferation assay (MTT). It counts as cell-based. The following applies: Homo sapiens, HT-29, HT29, 72 hr, EC50 ≧ 1 μM, read-out: EC50, anti-proliferative activity. A digest of the protocol: as §2
Experiment [12] deals with HUVEC cells. Briefly: In vitro cell proliferation assay (MTT). The following applies: Homo sapiens, 72 hr, read-out: EC50, anti-proliferative activity. It counts as cell-based. A digest of the protocol: as §2
Experiment [13] relates to HepG2 cell line. Briefly: In vitro cell proliferation assay (MTT). It counts as cell-based. As to conditions: Homo sapiens, HepG2, 72 hr, read-out: EC50, anti-proliferative activity. A digest of the protocol:
as §2

Experiment [14] relates to HuCCT1 cell line. Briefly: In vitro cell proliferation assay (MTT). It counts as cell-based. As to conditions: Homo sapiens, HuCCT-1, HuCCT1, 72 hr, EC50 ≧ 1 μM, read-out: EC50, anti-proliferative activity. A digest of the protocol:
as §2

Experiment [15] relates to HeLa cell line. Briefly: In vitro cell proliferation assay (MTT). The experiment is classed as cell-based. The following applies: Homo sapiens, 72 hr, 100 nM < EC50 < 1 μM, read-out: EC50, anti-proliferative activity. The gist of the method: as §2
For experiment [16], the system named is HuH7 cell line. Briefly: In vitro cell proliferation assay (MTT). As to conditions: Homo sapiens, Huh-7, HuH7, 72 hr, read-out: EC50, anti-proliferative activity. The experiment is classed as cell-based. The gist of the method:
as §2

Experiment [17] concerns MDA-MB-231 cell line. Briefly: In vitro cell proliferation assay (MTT). The following applies: Homo sapiens, MDA-MB-231, 72 hr, read-out: EC50, anti-proliferative activity. The experiment is classed as cell-based. A digest of the protocol:
as §2

Experiment [18] deals with HuH6 Clone 5 cell line. Briefly: In vitro cell proliferation assay (MTT). The experiment is classed as cell-based. The following applies: HUH-6-clone5, HuH6 Clone 5, 72 hr, 100 nM < EC50 < 1 μM, read-out: EC50, anti-proliferative activity. The gist of the method:
as §2

T4 sequence (P21802 22-821): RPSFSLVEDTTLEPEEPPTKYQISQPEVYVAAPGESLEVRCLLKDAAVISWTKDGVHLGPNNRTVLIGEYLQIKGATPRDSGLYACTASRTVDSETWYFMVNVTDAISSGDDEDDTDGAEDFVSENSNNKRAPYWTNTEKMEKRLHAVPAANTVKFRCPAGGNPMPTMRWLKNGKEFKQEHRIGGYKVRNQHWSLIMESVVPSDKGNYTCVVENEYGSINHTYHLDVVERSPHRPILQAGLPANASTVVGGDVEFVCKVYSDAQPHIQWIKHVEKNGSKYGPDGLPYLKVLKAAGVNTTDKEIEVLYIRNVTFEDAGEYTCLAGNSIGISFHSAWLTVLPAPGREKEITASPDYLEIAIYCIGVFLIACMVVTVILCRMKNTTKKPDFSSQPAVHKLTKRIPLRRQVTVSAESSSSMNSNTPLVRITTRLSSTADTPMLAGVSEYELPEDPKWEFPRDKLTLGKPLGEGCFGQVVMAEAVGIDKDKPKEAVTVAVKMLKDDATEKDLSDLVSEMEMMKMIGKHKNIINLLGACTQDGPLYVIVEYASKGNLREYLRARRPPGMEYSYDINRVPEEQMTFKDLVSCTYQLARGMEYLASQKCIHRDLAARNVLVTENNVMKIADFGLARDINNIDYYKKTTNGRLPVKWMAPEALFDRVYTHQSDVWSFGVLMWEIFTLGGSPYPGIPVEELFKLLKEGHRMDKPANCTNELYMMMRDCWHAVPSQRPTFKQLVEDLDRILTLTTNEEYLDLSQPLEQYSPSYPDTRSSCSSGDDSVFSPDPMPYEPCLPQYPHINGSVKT
T2 sequence (P00533 25-1210): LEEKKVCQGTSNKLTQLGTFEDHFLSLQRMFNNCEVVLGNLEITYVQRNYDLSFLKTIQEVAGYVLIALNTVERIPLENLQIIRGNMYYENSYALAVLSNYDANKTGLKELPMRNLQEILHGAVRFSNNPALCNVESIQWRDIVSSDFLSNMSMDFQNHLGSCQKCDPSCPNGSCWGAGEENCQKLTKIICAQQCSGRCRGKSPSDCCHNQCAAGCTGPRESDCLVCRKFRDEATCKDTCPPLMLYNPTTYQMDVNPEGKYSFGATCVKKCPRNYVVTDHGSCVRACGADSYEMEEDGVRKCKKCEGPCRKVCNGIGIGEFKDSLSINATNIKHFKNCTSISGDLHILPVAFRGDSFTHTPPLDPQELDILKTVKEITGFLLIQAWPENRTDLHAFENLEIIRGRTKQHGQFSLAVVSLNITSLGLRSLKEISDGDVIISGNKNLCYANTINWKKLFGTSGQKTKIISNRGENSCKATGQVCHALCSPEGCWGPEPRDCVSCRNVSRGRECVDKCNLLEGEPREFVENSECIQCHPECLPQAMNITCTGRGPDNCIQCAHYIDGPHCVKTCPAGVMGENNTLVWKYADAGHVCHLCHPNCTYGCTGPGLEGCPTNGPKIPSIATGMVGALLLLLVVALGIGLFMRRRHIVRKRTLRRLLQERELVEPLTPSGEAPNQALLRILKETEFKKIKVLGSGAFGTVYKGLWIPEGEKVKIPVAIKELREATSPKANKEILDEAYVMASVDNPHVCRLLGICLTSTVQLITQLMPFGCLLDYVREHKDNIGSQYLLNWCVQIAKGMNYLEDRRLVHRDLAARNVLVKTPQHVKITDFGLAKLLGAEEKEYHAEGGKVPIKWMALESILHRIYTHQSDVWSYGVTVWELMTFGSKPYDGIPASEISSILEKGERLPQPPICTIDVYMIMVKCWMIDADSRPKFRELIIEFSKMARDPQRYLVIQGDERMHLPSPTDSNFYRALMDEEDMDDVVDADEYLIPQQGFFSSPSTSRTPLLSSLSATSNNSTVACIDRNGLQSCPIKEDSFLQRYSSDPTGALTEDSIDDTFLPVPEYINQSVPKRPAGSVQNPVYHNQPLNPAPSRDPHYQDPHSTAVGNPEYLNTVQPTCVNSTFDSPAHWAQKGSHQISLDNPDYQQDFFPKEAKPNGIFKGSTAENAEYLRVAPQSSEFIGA
T7 sequence (P12931 whole entry): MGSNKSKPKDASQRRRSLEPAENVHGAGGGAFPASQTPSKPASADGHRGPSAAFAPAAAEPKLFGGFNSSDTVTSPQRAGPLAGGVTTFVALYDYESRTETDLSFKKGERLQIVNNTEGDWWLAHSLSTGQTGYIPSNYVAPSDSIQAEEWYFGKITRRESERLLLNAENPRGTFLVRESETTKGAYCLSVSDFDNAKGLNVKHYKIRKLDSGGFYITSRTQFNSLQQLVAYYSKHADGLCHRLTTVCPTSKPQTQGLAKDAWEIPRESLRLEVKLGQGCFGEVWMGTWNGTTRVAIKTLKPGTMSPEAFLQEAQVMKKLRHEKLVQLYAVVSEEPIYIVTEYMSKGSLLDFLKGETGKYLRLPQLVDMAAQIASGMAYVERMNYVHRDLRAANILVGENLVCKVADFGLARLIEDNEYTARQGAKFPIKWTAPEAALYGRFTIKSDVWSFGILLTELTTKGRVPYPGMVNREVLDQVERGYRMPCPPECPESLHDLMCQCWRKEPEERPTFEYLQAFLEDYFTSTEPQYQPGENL
T5 sequence (P35968 20-1356): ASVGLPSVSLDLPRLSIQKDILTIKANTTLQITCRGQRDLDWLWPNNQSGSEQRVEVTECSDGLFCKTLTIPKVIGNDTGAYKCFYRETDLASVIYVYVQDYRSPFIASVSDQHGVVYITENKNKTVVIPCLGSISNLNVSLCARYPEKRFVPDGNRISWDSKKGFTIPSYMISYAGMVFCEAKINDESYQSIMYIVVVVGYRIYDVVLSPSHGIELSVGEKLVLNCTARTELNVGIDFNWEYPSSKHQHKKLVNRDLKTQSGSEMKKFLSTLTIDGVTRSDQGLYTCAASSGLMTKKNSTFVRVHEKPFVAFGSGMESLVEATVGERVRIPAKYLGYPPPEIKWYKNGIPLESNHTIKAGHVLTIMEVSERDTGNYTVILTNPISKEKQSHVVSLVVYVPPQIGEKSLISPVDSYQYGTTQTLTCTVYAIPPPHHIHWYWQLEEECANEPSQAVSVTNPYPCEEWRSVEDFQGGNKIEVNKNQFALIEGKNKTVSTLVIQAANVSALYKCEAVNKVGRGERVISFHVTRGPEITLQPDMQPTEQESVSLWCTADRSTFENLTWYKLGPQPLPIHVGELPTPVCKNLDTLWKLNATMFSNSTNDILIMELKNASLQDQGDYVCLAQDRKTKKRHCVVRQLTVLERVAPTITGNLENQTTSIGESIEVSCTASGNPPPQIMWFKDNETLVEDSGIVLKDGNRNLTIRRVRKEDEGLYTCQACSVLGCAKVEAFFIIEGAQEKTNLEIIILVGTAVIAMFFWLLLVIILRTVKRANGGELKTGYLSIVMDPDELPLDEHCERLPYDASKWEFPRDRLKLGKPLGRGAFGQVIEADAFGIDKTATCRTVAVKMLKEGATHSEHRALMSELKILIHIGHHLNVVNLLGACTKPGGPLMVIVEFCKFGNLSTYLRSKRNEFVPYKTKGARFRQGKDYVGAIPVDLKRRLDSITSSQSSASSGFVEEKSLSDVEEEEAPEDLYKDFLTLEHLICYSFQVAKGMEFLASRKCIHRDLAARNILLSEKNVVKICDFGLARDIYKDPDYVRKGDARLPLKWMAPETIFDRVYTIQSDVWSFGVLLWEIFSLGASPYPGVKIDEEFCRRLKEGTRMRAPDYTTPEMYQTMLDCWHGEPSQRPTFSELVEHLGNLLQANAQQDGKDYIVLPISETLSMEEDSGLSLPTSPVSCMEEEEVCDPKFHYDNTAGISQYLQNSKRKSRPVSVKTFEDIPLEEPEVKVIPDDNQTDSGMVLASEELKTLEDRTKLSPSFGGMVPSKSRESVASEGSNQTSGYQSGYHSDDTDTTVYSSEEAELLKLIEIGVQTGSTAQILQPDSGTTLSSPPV
T1 sequence (P15056 whole entry): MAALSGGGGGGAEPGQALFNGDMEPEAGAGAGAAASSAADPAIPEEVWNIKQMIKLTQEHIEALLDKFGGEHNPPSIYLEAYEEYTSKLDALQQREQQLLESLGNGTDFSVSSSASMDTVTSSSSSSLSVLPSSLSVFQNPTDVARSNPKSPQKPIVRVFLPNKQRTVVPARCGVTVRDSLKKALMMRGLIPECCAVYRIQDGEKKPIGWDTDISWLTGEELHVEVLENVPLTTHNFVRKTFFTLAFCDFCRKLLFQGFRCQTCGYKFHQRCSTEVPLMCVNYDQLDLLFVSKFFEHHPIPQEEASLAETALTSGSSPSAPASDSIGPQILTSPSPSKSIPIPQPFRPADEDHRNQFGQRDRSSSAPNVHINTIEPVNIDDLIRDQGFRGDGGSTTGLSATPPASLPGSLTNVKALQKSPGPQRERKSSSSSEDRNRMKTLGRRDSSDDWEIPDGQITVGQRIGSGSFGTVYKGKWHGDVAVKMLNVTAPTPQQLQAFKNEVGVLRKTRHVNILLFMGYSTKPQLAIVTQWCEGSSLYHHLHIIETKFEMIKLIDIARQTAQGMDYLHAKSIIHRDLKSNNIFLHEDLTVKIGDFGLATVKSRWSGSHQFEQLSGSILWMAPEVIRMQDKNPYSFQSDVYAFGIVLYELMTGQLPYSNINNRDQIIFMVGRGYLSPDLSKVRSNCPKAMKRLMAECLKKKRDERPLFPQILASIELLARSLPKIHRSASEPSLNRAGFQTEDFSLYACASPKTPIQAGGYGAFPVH

Regarding `COC(=O)c1cc2cc(COc3cc(NC(=O)c4ccc(CN5CCN(C)CC5)cc4)ccc3C)cnc2[nH]1` [OR0779, 5-{2-Methyl-5-[4-(4-methyl-piperazin-1-ylmethyl)-benzoylamino]-phenoxymethyl}-1H-pyrrolo[2,3-b]pyridine-2-carboxylic acid methyl ester], the inhibition at 0.1 µM was < 50% in [1]; ≥ 50% in experiment [2]; < 50% in [3]; < 50% in experiment [4]; ≥ 50% in experiment [5]; ≥ 50% in experiment [6]. In experiment [7], the inhibition at 0.1 µM is ≥ 50%. Moreover, the EC50 in experiment [8] (EC50 ≧ 1 μM), in experiment [9], in experiment [10] (EC50 ≧ 1 μM), in [11], in experiment [12] (EC50 ≧ 1 μM) and in [13] (EC50 ≧ 1 μM) was ≥ 1 µM throughout. Also, the EC50 in experiment [14] is ≥ 1 µM.

On to `CC(=O)c1cc2cc(CCc3cc(NC(=O)c4ccc(CN5CC[C@H](N(C)C)C5)c(C(F)(F)F)c4)ccc3C)cnc2[nH]1` [OR0812, N-{3-[2-(2-Acetyl-1H-pyrrolo[2,3-b]pyridin-5-yl)-ethyl]-4-methyl-phenyl}-4-((S)-3-dimethylamino-pyrrolidin-1-ylmethyl)-3-trifluoromethyl-benzamide], for which the inhibition at 0.1 µM in experiment [1], in experiment [2], in experiment [4], in experiment [5], in experiment [6] and in experiment [7] was ≥ 50% throughout. Besides, the EC50 was ≤ 0.1 µM in experiment [8] (EC50 ≦ 100 nM); ≥ 1 µM in experiment [9]; 0.1 to 1 µM in experiment [10] (100 nM < EC50 < 1 μM); ≥ 1 µM in [11]; 0.1 to 1 µM in experiment [12] (100 nM < EC50 < 1 μM); 0.1 to 1 µM in experiment [15]. The EC50 in experiment [13] (100 nM < EC50 < 1 μM), in [16] (100 nM < EC50 < 1 μM) and in [17] (100 nM < EC50 < 1 μM) was 0.1 to 1 µM each time.

Turning to `COC(=O)c1cc2cc(CNc3cc(NC(=O)c4ccc(CN5CCN(C)CC5)cc4)ccc3C)cnc2[nH]1` [OR0746, 5-({2-Methyl-5-[4-(4-methyl-piperazin-1-ylmethyl)-benzoylamino]-phenylamino}-methyl)-1H-pyrrolo[2,3-b]pyridine-2-carboxylic acid methyl ester], the inhibition at 0.1 µM in experiment [1] was < 50%; in [2], ≥ 50%; in experiment [3] it was < 50%; in [4], < 50%; in experiment [5] it was < 50%; in experiment [6], ≥ 50%. For the same compound, the inhibition at 0.1 µM in [7] is < 50%. For the same compound, the EC50 in [8] (EC50 ≧ 1 μM), in experiment [9], in experiment [10] (EC50 ≧ 1 μM), in experiment [11], in experiment [12] (EC50 ≧ 1 μM) and in experiment [13] (EC50 ≧ 1 μM) was ≥ 1 µM in each case. In addition, the 50% effective concentration (EC50) in experiment [14] is ≥ 1 µM.

`CC(=O)c1cc2cc(CCc3cc(NC(=O)c4ccc(CN5CCN(C)CC5)c(C(F)(F)F)c4)ccc3C)cnc2[nH]1` [OR0797, N-{3-[2-(2-Acetyl-1H-pyrrolo[2,3-b]pyridin-5-yl)-ethyl]-4-methyl-phenyl}-4-(4-methyl-piperazin-1-ylmethyl)-3-trifluoromethyl-benzamide]: the inhibition at 0.1 µM in [1], in [2], in experiment [4], in [5], in [6] and in [7] was ≥ 50% throughout. The EC50 is ≤ 0.1 µM in experiment [8] (EC50 ≦ 100 nM); ≤ 0.1 µM in experiment [10] (EC50 ≦ 100 nM); ≤ 0.1 µM in experiment [12] (EC50 ≦ 100 nM); 0.1 to 1 µM in experiment [15]; 0.1 to 1 µM in experiment [13] (100 nM < EC50 < 1 μM); ≥ 1 µM in experiment [14]. Further, the values for the EC50 in experiment [18], in experiment [16] (EC50 ≦ 100 nM) and in [17] (EC50 ≦ 100 nM) were 0.1 to 1 µM, ≤ 0.1 µM and ≤ 0.1 µM, respectively.
